# Measured values taken from patent publication EP1099690A1, “MONOCYCLIC $g(b)-LACTAM COMPOUNDS AND CHYMASE INHIBITORS CONTAINING THE SAME” (SHIONOGI & CO., LTD., priority 1998, dated 2000).
# Target: T1, human chymase (Homo sapiens, UniProt P23946)
# T1 sequence (P23946 22-247): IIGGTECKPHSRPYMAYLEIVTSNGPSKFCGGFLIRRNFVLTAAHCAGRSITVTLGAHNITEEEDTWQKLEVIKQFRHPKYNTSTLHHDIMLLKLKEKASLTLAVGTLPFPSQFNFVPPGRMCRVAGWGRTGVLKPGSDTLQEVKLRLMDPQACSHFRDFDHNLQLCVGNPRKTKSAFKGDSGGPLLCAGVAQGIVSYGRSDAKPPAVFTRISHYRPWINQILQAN
# Experiment: Chymase inhibitory activity (Suc-Ala-Ala-Pro-Phe-pNA substrate, absorption 405 nm)
# Assay type: biochemical
# Details: purified human chymase, 30 minutes at 37 °C preincubation, substrate 0.5 mM
# Procedure: Compound (I) was dissolved in dimethylsulfoxide (DMSO) at 10^-2 M. Concentration of DMSO for activity measurement was 1 %.
# Compound (I) dissolved in DMSO and purified human chymase (Takai et al., Clinica Chimica Acta 265, 1997, 13-20) were added to a buffer (0.1M Tris-HCl, 1.8M NaCl pH8.0). After the mixture was treated for 30 minutes at 37 °C, Suc-Ala-Ala-Pro-Phe-pNA (BACHEM Feinchemikalien AG) was added at 0.5 mM as a substrate and the mixture was enzymatically reacted at 37 °C.
# After the reaction, the absorption intensity (405 nm) of the solution was measured to calculate the inhibitory rate.
row,Compound,IC50
1,CC(=O)O[C@H]1[C@H](Cc2ccccc2)C(=O)N1C(=O)NC(C)c1ccccc1 (some centres unmarked) [Compound I-36],4.2 nM
2,C[C@@H](NC(=O)N1C(=O)[C@@H](Cc2ccccc2)[C@@H]1Oc1ccc(C(=O)N(C)CCN(C)C)cc1)c1ccccc1 [Compound I-38],2.2 nM
3,C[C@@H](NC(=O)N1C(=O)[C@@H](Cc2ccccc2)[C@@H]1Oc1ccc(C(=O)N2CCC[C@@H]2C)cc1)c1ccccc1 [Compound I-41],1.9 nM
4,C[C@@H](NC(=O)N1C(=O)[C@@H](Cc2ccccc2)[C@@H]1Oc1ccc(C(=O)N2CCOCC2)cc1)c1ccccc1 [Compound I-43],1.08 nM
5,C=CCNC(=O)c1ccc(O[C@H]2[C@H](Cc3ccccc3)C(=O)N2C(=O)N[C@H](C)c2ccccc2)cc1 [Compound I-44],3.8 nM
6,C[C@@H](NC(=O)N1C(=O)[C@@H](Cc2ccccc2)[C@@H]1Oc1ccc(C(=O)NCc2ccccc2)cc1)c1ccccc1 [Compound I-45],20 nM
7,C[C@@H](NC(=O)N1C(=O)[C@@H](Cc2ccccc2)[C@@H]1Oc1ccc(C(=O)Nc2ccccc2)cc1)c1ccccc1 [Compound I-46],31 nM
8,C[C@@H](NC(=O)N1C(=O)[C@@H](Cc2ccccc2)[C@@H]1Oc1ccc(C(=O)OCCN(C)C)cc1)c1ccccc1 [Compound I-47],3 nM
9,C[C@@H](NC(=O)N1C(=O)[C@@H](Cc2ccccc2)[C@@H]1Oc1ccc(CC(=O)O)cc1)c1ccccc1 [Compound I-49],4.3 nM
10,C[C@@H](NC(=O)N1C(=O)[C@@H](Cc2ccccc2)[C@@H]1Oc1ccc(CC(=O)N2CCN(C)CC2)cc1)c1ccccc1 [Compound I-50],1.13 nM
11,C[C@@H](NC(=O)N1C(=O)[C@@H](Cc2ccccc2)[C@@H]1Oc1ccc(CC(=O)OCCN(C)C)cc1)c1ccccc1 [Compound I-51],30 nM
12,C[C@@H](NC(=O)N1C(=O)[C@@H](Cc2ccccc2)[C@@H]1Oc1ccc(/C=C/C(=O)O)cc1)c1ccccc1 [Compound I-52],5.2 nM
13,C[C@@H](NC(=O)N1C(=O)[C@@H](Cc2ccccc2)[C@@H]1Oc1ccc(/C=C/C(=O)N2CCN(C)CC2)cc1)c1ccccc1 [Compound I-54],3.5 nM
14,C[C@@H](NC(=O)N1C(=O)[C@@H](Cc2ccccc2)[C@@H]1Oc1cccc(C(=O)O)c1)c1ccccc1 [Compound I-55],17 nM
15,C[C@@H](NC(=O)N1C(=O)[C@@H](Cc2ccccc2)[C@@H]1Oc1cccc(C(=O)N2CCN(C)CC2)c1)c1ccccc1 [Compound I-56],2.95 nM
16,C[C@@H](NC(=O)N1C(=O)[C@@H](Cc2ccccc2)[C@@H]1Sc1ccc(C(=O)O)cc1)c1ccccc1 [Compound I-57],24 nM
17,C[C@@H](NC(=O)N1C(=O)[C@@H](Cc2ccccc2)[C@@H]1Sc1ccc(C(=O)N2CCN(C)CC2)cc1)c1ccccc1 [Compound I-58],5.7 nM
18,C[C@@H](NC(=O)N1C(=O)[C@@H](Cc2ccccc2)[C@H]1Oc1ccc(C(=O)N2CCOCC2)cc1)c1ccccc1 [Compound I-67],0.18 nM
19,C[C@@H](NC(=O)N1C(=O)[C@@H](Cc2ccccc2)[C@H]1Oc1ccc(C(=O)NCc2ccccc2F)cc1)c1ccccc1 [Compound I-68],0.68 nM

row,Compound,IC50
1,C[C@@H](NC(=O)N1C(=O)[C@@H](Cc2ccccc2)[C@H]1Oc1ccc(C(=O)OCc2ccccc2)cc1)c1ccccc1 [Compound I-69],16.2 nM
2,CCN(Cc1ccccc1)C(=O)c1ccc(O[C@@H]2[C@H](Cc3ccccc3)C(=O)N2C(=O)N[C@H](C)c2ccccc2)cc1 [Compound I-70],1.28 nM
3,CC(OC(=O)c1ccc(O[C@@H]2[C@H](Cc3ccccc3)C(=O)N2C(=O)N[C@H](C)c2ccccc2)cc1)c1ccccc1 (some centres unmarked) [Compound I-71],19 nM
4,C[C@@H](NC(=O)N1C(=O)[C@@H](Cc2ccccc2)[C@H]1Oc1ccc(C(=O)NNc2ccccc2)cc1)c1ccccc1 [Compound I-73],0.92 nM
5,C[C@@H](NC(=O)N1C(=O)[C@@H](Cc2ccccc2)[C@H]1Oc1ccc(C(=O)N[C@@H](Cc2ccccc2)C(=O)OCc2ccccc2)cc1)c1ccccc1 [Compound I-74],8.6 nM
6,C[C@@H](NC(=O)N1C(=O)[C@@H](Cc2ccccc2)[C@H]1Oc1ccc(C(=O)OCc2ccncc2)cc1)c1ccccc1 [Compound I-75],1.2 nM
7,C[C@@H](NC(=O)N1C(=O)[C@@H](Cc2ccccc2)[C@H]1Oc1ccc(C(=O)N2CCN(Cc3ccc4c(c3)OCO4)CC2)cc1)c1ccccc1 [Compound I-76],2.4 nM
8,C[C@@H](NC(=O)N1C(=O)[C@@H](Cc2ccccc2)[C@H]1Oc1ccc(C(=O)N[C@@H](Cc2ccccc2)C(=O)O)cc1)c1ccccc1 [Compound I-77],0.26 nM
9,C[C@H](NC(=O)N1C(=O)[C@@H](Cc2ccccc2)[C@H]1Oc1ccc(C(=O)N2CCN(C)CC2)cc1)c1ccccc1 [Compound I-81],13 nM
10,C[C@@H](NC(=O)N1C(=O)[C@@H](Cc2ccccc2)[C@H]1Sc1ccccc1)c1ccccc1 [Compound I-85],2.4 nM
11,C[C@@H](NC(=O)N1C(=O)[C@H](Cc2ccccc2)[C@H]1Oc1ccc(C(=O)N2CCN(C)CC2)cc1)c1ccccc1 [Compound I-87],0.8 nM
12,C[C@H](NC(=O)N1C(=O)[C@H](Cc2ccccc2)[C@H]1Oc1ccc(C(=O)N2CCN(C)CC2)cc1)c1ccccc1 [Compound I-89],18.5 nM
13,CC(NC(=O)N1C(=O)[C@@H](Cc2ccccc2)[C@@H]1Oc1ccc(C(N)=O)cc1)c1ccccc1 (some centres unmarked) [Compound I-95],16 nM
14,COc1ccccc1C[C@@H]1C(=O)N(C(=O)N[C@H](C)c2ccccc2)[C@H]1Oc1ccc(C(=O)O)cc1 [Compound I-102],1 nM
15,COc1ccccc1C[C@@H]1C(=O)N(C(=O)N[C@H](C)c2ccccc2)[C@H]1Oc1ccc(C(=O)N2CCN(C)CC2)cc1 [Compound I-104],0.19 nM
16,COc1ccccc1C[C@@H]1C(=O)N(C(=O)N[C@H](C)c2ccccc2)[C@H]1Oc1ccc(C(=O)OCc2ccncc2)cc1 [Compound I-105],2.8 nM
17,COc1ccccc1C[C@@H]1C(=O)N(C(=O)N[C@H](C)c2ccccc2)[C@H]1Oc1ccc(C(=O)N2CCN(c3ncccn3)CC2)cc1 [Compound I-107],0.68 nM
18,COc1ccccc1C[C@@H]1C(=O)N(C(=O)N[C@H](C)c2ccccc2)[C@H]1Oc1ccc(C(=O)N2CCN(C3CCCCC3)CC2)cc1 [Compound I-108],0.48 nM
19,COc1ccccc1C[C@@H]1C(=O)N(C(=O)N[C@@H](C)c2ccccc2)[C@H]1Oc1ccc(C(=O)N2CCN(C)CC2)cc1 [Compound I-111],11 nM

row,Compound,IC50
1,CC[C@@H](NC(=O)N1C(=O)[C@@H](Cc2ccccc2OC)[C@@H]1Oc1ccc(C(=O)O)cc1)c1ccccc1 [Compound I-113],0.5 nM
2,CC[C@H](NC(=O)N1C(=O)[C@@H](Cc2ccccc2OC)[C@@H]1Oc1ccc(C(=O)O)cc1)c1ccccc1 [Compound I-115],18 nM
3,CCCC(NC(=O)N1C(=O)[C@@H](Cc2ccccc2OC)[C@@H]1Oc1ccc(C(=O)N2CCC(N3CCCCC3)CC2)cc1)c1ccc2c(c1)OCO2 (some centres unmarked) [Compound I-121],0.29 nM
4,COc1ccccc1C[C@@H]1C(=O)N(C(=O)NC2(c3ccccc3)CC2)[C@H]1Oc1ccc(C(=O)O)cc1 [Compound I-125],19 nM
5,COc1ccccc1C[C@@H]1C(=O)N(C(=O)NC(c2ccccc2)c2ccccc2)[C@H]1Oc1ccc(C(=O)O)cc1 [Compound I-126],2.95 nM
6,COc1ccccc1C[C@@H]1C(=O)N(C(=O)N[C@H](C)c2ccccc2)[C@@H]1Oc1ccc(C(=O)N2CCN(C)CC2)cc1 [Compound I-129],1.02 nM
7,COc1ccccc1C[C@@H]1C(=O)N(C(=O)N[C@@H](C)c2ccccc2)[C@@H]1Oc1ccc(C(=O)O)cc1 [Compound I-130],1.18 nM
8,COc1ccccc1C[C@@H]1C(=O)N(C(=O)N[C@@H](C)c2ccccc2)[C@@H]1Oc1ccc(C(=O)N2CCN(C)CC2)cc1 [Compound I-132],0.25 nM
9,COc1ccccc1C[C@@H]1C(=O)N(C(=O)N[C@@H](C)c2ccccc2)[C@@H]1Oc1ccc(C(=O)N2CCN(C)CC2)cc1 [Compound I-134],0.1 nM
10,CCOc1ccccc1C[C@@H]1C(=O)N(C(=O)N[C@H](CC)c2ccccc2)[C@H]1Oc1ccc(C(=O)O)cc1 [Compound I-135],2.1 nM
11,CCOc1ccccc1C[C@@H]1C(=O)N(C(=O)N[C@H](CC)c2ccccc2)[C@H]1Oc1ccc(C(=O)N2CCN(C3CCCCC3)CC2)cc1 [Compound I-137],3.4 nM
12,CCOc1ccccc1C[C@@H]1C(=O)N(C(=O)NC(c2ccccc2)c2ccccc2)[C@H]1Oc1ccc(C(=O)N2CCN(C3CCCCC3)CC2)cc1 [Compound I-145],10.8 nM
13,CCOc1ccccc1C[C@@H]1C(=O)N(C(=O)NC(c2ccccc2)c2ccccc2)[C@H]1Oc1ccc(C(=O)N2CCOCC2)cc1 [Compound I-148],0.55 nM
14,CCOc1ccccc1C[C@@H]1C(=O)N(C(=O)NC(c2ccccc2)c2ccccc2)[C@H]1Oc1ccc(C(=O)OCCN2CCOCC2)cc1 [Compound I-150],5.4 nM
15,CCOc1ccccc1C[C@@H]1C(=O)N(C(=O)NC(c2ccccc2)c2ccccc2)[C@H]1Oc1ccc(C(=O)NS(=O)(=O)c2ccccc2)cc1 [Compound I-151],4.6 nM
16,CCOc1ccccc1C[C@@H]1C(=O)N(C(=O)NC(c2ccccc2)c2ccccc2)[C@H]1Oc1ccc(C(=O)O)c(C(=O)O)c1 [Compound I-152],4.1 nM
17,CCOc1ccccc1C[C@@H]1C(=O)N(C(=O)NC(c2ccccc2)c2ccccc2)[C@H]1Oc1ccc(CC(=O)O)cc1 [Compound I-154],2.5 nM
18,CCOc1ccccc1C[C@@H]1C(=O)N(C(=O)NC(c2ccccc2)c2ccccc2)[C@H]1Oc1ccc(/C=C/C(=O)O)cc1 [Compound I-155],3.8 nM
